Measured values reported in ChEMBL document CHEMBL5385844, “Discovery of novel imidazole chemotypes as isoform-selective JNK3 inhibitors for the treatment of Alzheimer's disease” (Eur J Med Chem, 2023).
Active and inactive are the calls of the source. The calls are words filed in the database; no cut-off is given here.

What was measured:
[1] = Toxicity in APP/PS1 mouse assessed as weight change at 30 mg/kg, po treated 3 times/week for 1 month; assay type: organism-based; conditions: in vivo, 730 h, time 1 months
[2] = target: T1, Mitogen-activated protein kinase 9 (Homo sapiens, UniProt P45984); assay: Inhibition of human JNK2 incubated for 40 mins in presence of ATP and [gamma33P-ATP] by scintillation counting method
[3] = test system: Mus musculus; assay: Anti-alzheimer activity against homozygous 3 x Tg mouse model assessed as time spent in platform quadrant at 30 mg/kg, po administered daily for 2 months and measured after 27 days of treatment by Morris water maze test (reference value: 15.68 +/- 1.65 sec); assay type: functional; conditions: 1460 h
[4] = Plasma concentration in Sprague-Dawley rat at 30 mg/kg, po measured at Tmax; assay type: ADME, organism-based
[5] = Efflux ratio of apparent permeability basolateral to apical side over apical to basolateral side in human Caco-2 cells at 10 uM incubated for 1 hr by LC-MS/MS analysis; assay type: ADME, cell-based
[6] = Toxicity in APP/PS1 mouse assessed as dead animal at 30 mg/kg, po treated 3 times/week for 1 month; assay type: organism-based; conditions: in vivo, 730 h, time 1 months
[7] = target: Mitogen-activated protein kinase 10 (Homo sapiens, UniProt P53779); assay: Inhibition of human JNK3 incubated for 40 mins in presence of ATP and [gamma33P-ATP] by scintillation counting method; conditions: read-out: IC50
[8] = test system: Mus musculus; assay: Anti-alzheimer activity against APP/PS1 dE9 double transgenic mouse model assessed as spontaneous alteration at 10 mg/kg, po administered 3 times/week for 1 month and measured after 27 days of treatment by Y-maze test (reference value: 46.70 +/- 3.32%); assay type: functional; conditions: time 1 months, 730 h
[9] = AUC in Sprague-Dawley rat at 1 mg/kg, iv measured upto 24 hrs by UPLC analysis; assay type: ADME, organism-based; parameters: dose 1 mg/kg, time < 24 hrs, route iv; conditions: in vivo
[10] = target: Mitogen-activated protein kinase 11 (Homo sapiens, UniProt Q15759); assay: Inhibition of human SAPK2b assessed as incorporation of 33P-ATP
[11] = Apparent permeability across basolateral to apical side in human Caco-2 cells at 10 uM incubated for 1 hr by LC-MS/MS analysis; assay type: ADME, cell-based
[12] = target: T2, Mitogen-activated protein kinase 8 (Homo sapiens, UniProt P45983); assay: Inhibition of human JNK1 incubated for 40 mins in presence of ATP and [gamma33P-ATP] by scintillation counting method
[13] = Half life in Sprague-Dawley rat at 1 mg/kg, iv measured upto 24 hrs by UPLC analysis; assay type: ADME, organism-based; conditions: in vivo
[14] = target: Mitogen-activated protein kinase 14 (Homo sapiens, UniProt Q16539); assay: Inhibition of human SAPK2a assessed as incorporation of 33P-ATP
[15] = test system: Mus musculus; assay: Anti-alzheimer activity against homozygous 3 x Tg mouse model assessed as spontaneous alteration at 60 mg/kg, po administered daily for 2 month and measured after 57 days of treatment by Y-maze test (reference value: 46.81 +/- 2.76%); assay type: functional; conditions: time 2 months, 1460 h
[16] = Toxicity in APP/PS1 mouse assessed as abnormal symptoms at 10 mg/kg, po treated 3 times/week for 1 month; assay type: organism-based; conditions: in vivo, 730 h, time 1 months
[17] = target: T2, Mitogen-activated protein kinase 8; assay: Inhibition of human JNK1alpha1 assessed as incorporation of 33P-ATP
[18] = target: Glycogen synthase kinase-3 beta (Homo sapiens, UniProt P49841); assay: Inhibition of human GSK3beta assessed as incorporation of 33P-ATP
[19] = test system: Cortical neurone; assay: Neuroprotective activity against Amyloid beta (1 to 42)-induced toxicity in rat cortical neuron assessed as cell viability at 20 uM measured after 24 hrs by MTT assay; assay type: functional; conditions: read-out: Activity
[20] = Permeability of the compound by PAMPA-BBB assay; assay type: ADME; conditions: read-out: permeability
[21] = target: Mitogen-activated protein kinase 10 (Rattus norvegicus) (UniProt P49187); assay: Inhibition of JNK3 in anisomycin-induced c-Jun phosphorylation in primary rat cortex neuron assessed as decrease in c-Jun phosphorylation at 20 uM pretreated for 90 mins followed by treated with anisomycin further incubated for 40 mins by Western blot analysis; assay type: cell-based; conditions: Primary cortical neuron
[22] = target: Mitogen-activated protein kinase 10 (Rattus norvegicus) (UniProt P49187); assay: Inhibition of JNK3 mediated anisomycin-induced APP phosphorylation in rat cortical neurons at 10 to 20 uM incubated for 24 hrs by Western blot analysis; assay type: cell-based; conditions: Cortical neuron, dose 10-20 µM
[23] = test system: Mus musculus; assay: Anti-alzheimer activity against APP/PS1 dE9 double transgenic mouse model assessed as escape latency time at 30 mg/kg, po administered 3 times/week for 1 month and measured after 27 days of treatment by Passive avoidance test (reference value: 18.5 +/- 2.3 sec); assay type: functional; conditions: time 27 day
[24] = Toxicity in APP/PS1 mouse assessed as abnormal symptoms at 30 mg/kg, po treated 3 times/week for 1 month; assay type: organism-based; conditions: in vivo, 730 h, time 1 months
[25] = Cmax in Sprague-Dawley rat at 3 mg/kg, po measured upto 24 hrs by UPLC analysis; assay type: ADME, organism-based; parameters: dose 3 mg/kg, time < 24 hrs, route po; conditions: in vivo
[26] = test system: Mus musculus; assay: Anti-alzheimer activity against homozygous 3 x Tg mouse model assessed as time spent in platform quadrant at 60 mg/kg, po administered daily for 2 months and measured after 27 days of treatment by Morris water maze test (reference value: 15.68 +/- 1.65 sec); assay type: functional; conditions: 1460 h
[27] = target: T1, Mitogen-activated protein kinase 9; assay: Inhibition of human JNK2alpha1 assessed as incorporation of 33P-ATP
[28] = Apparent permeability across apical to basolateral side in human Caco-2 cells at 10 uM incubated for 1 hr by LC-MS/MS analysis; assay type: ADME, cell-based

T2 sequence (P45983 whole entry): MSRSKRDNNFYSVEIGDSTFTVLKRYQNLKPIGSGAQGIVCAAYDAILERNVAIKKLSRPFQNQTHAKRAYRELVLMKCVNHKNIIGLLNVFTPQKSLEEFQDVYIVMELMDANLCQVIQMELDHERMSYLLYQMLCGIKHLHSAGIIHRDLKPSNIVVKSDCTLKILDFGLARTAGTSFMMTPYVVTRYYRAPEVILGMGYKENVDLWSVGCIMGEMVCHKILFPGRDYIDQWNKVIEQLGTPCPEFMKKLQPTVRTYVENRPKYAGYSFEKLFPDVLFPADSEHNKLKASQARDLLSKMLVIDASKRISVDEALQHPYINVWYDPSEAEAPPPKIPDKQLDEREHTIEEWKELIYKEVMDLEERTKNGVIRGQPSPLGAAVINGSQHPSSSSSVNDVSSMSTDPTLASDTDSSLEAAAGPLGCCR
Sequence of Mitogen-activated protein kinase 10 (Rattus norvegicus) (P49187 whole entry): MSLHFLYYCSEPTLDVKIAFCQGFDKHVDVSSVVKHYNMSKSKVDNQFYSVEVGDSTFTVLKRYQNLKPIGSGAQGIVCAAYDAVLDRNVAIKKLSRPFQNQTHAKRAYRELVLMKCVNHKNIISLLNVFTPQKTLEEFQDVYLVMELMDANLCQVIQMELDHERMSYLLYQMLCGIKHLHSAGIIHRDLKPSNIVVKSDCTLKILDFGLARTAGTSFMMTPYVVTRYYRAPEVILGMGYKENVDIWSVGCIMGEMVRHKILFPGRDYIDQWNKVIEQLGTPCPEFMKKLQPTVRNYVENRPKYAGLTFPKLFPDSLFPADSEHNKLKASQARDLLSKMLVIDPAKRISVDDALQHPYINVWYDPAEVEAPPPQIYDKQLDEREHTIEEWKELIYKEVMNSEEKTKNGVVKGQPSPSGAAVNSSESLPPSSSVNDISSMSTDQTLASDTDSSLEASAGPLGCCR
T1 sequence (P45984 whole entry): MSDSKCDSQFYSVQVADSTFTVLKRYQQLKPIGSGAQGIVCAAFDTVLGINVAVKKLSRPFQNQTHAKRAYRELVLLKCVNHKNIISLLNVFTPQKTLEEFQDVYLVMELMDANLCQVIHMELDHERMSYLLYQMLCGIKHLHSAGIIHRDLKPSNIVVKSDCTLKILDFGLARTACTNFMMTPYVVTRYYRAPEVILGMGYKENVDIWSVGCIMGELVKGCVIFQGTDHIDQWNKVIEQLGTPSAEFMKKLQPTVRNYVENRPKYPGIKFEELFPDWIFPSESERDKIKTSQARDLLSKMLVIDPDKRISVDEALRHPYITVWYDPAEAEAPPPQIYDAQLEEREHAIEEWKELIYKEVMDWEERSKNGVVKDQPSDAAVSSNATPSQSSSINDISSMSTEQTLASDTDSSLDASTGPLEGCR
Sequence of Glycogen synthase kinase-3 beta (P49841 whole entry): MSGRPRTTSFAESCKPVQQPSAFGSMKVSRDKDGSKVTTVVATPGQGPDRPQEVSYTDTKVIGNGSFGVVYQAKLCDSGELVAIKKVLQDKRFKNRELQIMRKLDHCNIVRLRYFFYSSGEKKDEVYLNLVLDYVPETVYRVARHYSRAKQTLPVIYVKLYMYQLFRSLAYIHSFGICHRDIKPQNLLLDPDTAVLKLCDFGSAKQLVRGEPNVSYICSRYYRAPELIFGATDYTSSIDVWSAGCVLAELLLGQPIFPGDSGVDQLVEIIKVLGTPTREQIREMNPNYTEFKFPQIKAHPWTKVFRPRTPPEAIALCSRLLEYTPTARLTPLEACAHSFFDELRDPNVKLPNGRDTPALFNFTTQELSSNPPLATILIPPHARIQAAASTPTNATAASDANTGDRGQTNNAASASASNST
Sequence of Mitogen-activated protein kinase 10 (P53779 whole entry): as the sequence (P49187 whole entry) above, with H27Q, S32Y, V33I, V34A counted along it
Sequence of Mitogen-activated protein kinase 14 (Q16539 whole entry): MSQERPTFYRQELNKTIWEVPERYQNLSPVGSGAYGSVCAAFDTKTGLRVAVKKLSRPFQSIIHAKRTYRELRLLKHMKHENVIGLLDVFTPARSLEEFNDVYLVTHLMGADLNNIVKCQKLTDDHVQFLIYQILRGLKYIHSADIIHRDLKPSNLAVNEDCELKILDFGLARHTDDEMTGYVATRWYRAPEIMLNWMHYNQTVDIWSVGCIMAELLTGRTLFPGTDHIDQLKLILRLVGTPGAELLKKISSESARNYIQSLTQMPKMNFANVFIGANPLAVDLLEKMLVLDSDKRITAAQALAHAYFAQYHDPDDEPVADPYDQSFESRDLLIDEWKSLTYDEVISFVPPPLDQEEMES
Sequence of Mitogen-activated protein kinase 11 (Q15759 whole entry): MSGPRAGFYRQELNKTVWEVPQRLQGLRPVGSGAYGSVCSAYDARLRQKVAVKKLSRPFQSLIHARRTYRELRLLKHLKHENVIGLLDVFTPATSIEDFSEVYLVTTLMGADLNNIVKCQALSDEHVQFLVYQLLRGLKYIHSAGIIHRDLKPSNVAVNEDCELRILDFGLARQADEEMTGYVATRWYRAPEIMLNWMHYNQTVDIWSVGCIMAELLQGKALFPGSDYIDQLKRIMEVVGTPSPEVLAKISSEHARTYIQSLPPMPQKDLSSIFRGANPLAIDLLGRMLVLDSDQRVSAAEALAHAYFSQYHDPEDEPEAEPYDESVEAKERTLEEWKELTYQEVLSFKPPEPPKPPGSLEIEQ

In the case of `N#CCc1cnc(-c2ccc3ccccc3c2)n1-c1ccnc(N[C@H]2CCCN(C(=O)C3CC3)C2)n1`, the Activity [1] is reported as “Non-Toxic”, the IC50 [2] is reported as 144 nM and the Time [3] is reported as 13.24 s. For the same compound, the Cmax [4] was 1080 ng/mL, the efflux ratio at 1 h, 10 µM [5] was 1.92 and the Activity [6] was “Non-Toxic”. For the same compound, the IC50 [7] was 1 nM, the Activity [8] was 52.31% and the AUC at 24 h [9] was 718 ng·h/mL. It also gave an IC50 [10] of 280 nM, a Papp B→A at 1 h, 10 µM [11] of 26.4 ×10⁻⁶ cm/s and an IC50 [12] of 298 nM. It also gave a half-life [13] of 13.2 min, an IC50 [14] of 310 nM and an Activity [15] of 56.55%. The Activity [16] was “Non-Toxic”, the IC50 [17] was 860 nM and the IC50 [18] was 11700 nM. For the same compound, the viability at 20 µM [19] was 72.6%, the Papp [20] was 28.5 ×10⁻⁶ cm/s and the Activity [21] was “Active”. The inhibition [22] was “Active”, the Time [23] was 49.5 s and the Activity [24] was “Non-Toxic”. The Cmax [25] was 378 ng/mL, the Time [26] was 15.55 s and the IC50 [27] was 340 nM. The Papp A→B at 1 h, 10 µM [28] was 13.7 ×10⁻⁶ cm/s.
